Results: US20200054660A1, “DNA M[…] FOR T-CELL IMMUNOTHERAPY” (priority 2016, published 2020)

Tested on: virus-specific CD8 T cells
Design: species or system mice
Details: mouse, in vivo

Nc1ncn([C@H]2C[C@H](O)[C@@H](CO)O2)c(=O)n1 [DAC, 5-aza-2′-deoxycytidine]
Ki67+ virus-specific CD8 T cells: significant increase
T cell expansion: did not observe an enhancement
expansion of virus-specific T cells in spleen, lungs and liver: enhanced expansion
quantity of gp33-specific CD8 T cells in the peripheral blood: striking increase
